For series [1] the following is noted: pH 2.7.
In a further series the test system is Phytophthora infestans. The format is in vivo. Conditions: tomato plants, spray, 500 ppm, grading 5 days after contamination.

Marks after values point to notes of the source that are not given here.

The LogP is the decadic logarithm of the partition coefficient of the neutral form, usually between octanol and water. With `CC(Oc1ccccc1Cl)C(=O)Nc1nc(CO/N=C(/c2ccccc2)c2noc(=O)n2C)cs1` (racemic) [Example 366], the LogP in series [1] was 4.07 [a]. This compound also returned an Eff. % with Phytophthora infestans of 94%.

Turning to `CC(C)CC(C)OC(=O)Nc1cccc(CO/N=C(/c2ccc(F)cc2)c2noc(=O)n2C)n1` (racemic) [Example 383], in series [1], the LogP is 4.77 [a]. This compound yielded an Eff. % in the series on Phytophthora infestans of 70%. For `CCC(C(=O)Nc1cccc(CO/N=C(/c2ccccc2)c2noc(=O)n2C)n1)c1ccccc1` (racemic) [Example 386], in that order: 4.23 [a] and 80%. As to `CC(OCC1CC1)C(=O)Nc1cccc(CO/N=C(/c2ccccc2)c2noc(=O)n2C)n1` (racemic) [Example 390], the log partition coefficient (LogP) in series [1] was 3.78 [a]. For the same compound, in the series with Phytophthora infestans, the Eff. % was 100%.

Take `Cn1c(/C(=N\OCc2csc(NC(=O)c3ccccc3F)n2)c2ccccc2)noc1=O` [Example 27]: the LogP in series [1] is 3.44 [a]. In addition, in the series on Phytophthora infestans, the Eff. % is on record as 100%. For `Cn1c(/C(=N\OCc2cccc(NC(=O)Cc3ccccc3Cl)n2)c2ccccc2)noc1=O` [Example 29], in that order: 3.76 [a] and 100%. For `CCCCCCCC(=O)Nc1cccc(CO/N=C(/c2ccccc2)c2noc(=O)n2C)n1` [Example 32], in that order: 4.71 [a] and 100%. `CCCOC(=O)Nc1cccc(CO/N=C(/c2ccccc2)c2noc(=O)n2C)n1` [Example 33]: in series [1], the LogP was 3.62 [a]. In addition, in the series on Phytophthora infestans, the Eff. % was determined as 100%.

Regarding `CC(C)CCOC(=O)Nc1nc(CO/N=C(/c2ccccc2)c2noc(=O)n2C)cs1` [Example 47], the LogP in series [1] is 4.06 [a]. This compound also had an Eff. % in the series on Phytophthora infestans of 100%. The like results for `CCOCCC(=O)Nc1cccc(CO/N=C(/c2ccccc2)c2noc(=O)n2C)n1` [Example 48] were, in that order, 2.96 [a] and 98%.

For `CC(=O)Nc1cccc(CO/N=C(/c2ccccc2)c2noc(=O)n2C)n1` [Example 52], the LogP in series [1] was 2.44 [a]. Also, in the series with Phytophthora infestans, the Eff. % worked out at 100%. As to `Cn1c(/C(=N\OCc2csc(NC(=O)COc3ccc(Br)cc3)n2)c2ccccc2)noc1=O` [Example 55], the LogP in series [1] was 3.94 [a]. This compound yielded an Eff. % with Phytophthora infestans of 100%. For `CCC(C)CCOC(=O)Nc1cccc(CO/N=C(/c2ccccc2)c2noc(=O)n2C)n1` (stereo not drawn) [Example 56], in that order: 4.78 [a] and 100%. For `CCn1c(/C(=N\OCc2cccc(NC(=O)OC3CCCCC3)n2)c2ccccc2)noc1=O` [Example 61], in series [1], the LogP is 4.77 [a]. Moreover, the Eff. % with Phytophthora infestans worked out at 100%. Take `Cn1c(/C(=N\OCc2csc(NC(=O)OCC(C)(C)C)n2)c2ccccc2)noc1=O` [Example 72]: the LogP in series [1] is 4.01 [a]. The Eff. % in the series with Phytophthora infestans was 97%. As to `Cn1c(/C(=N\OCc2csc(NC(=O)Oc3ccccc3)n2)c2ccccc2)noc1=O` [Example 75], the LogP in series [1] was 3.48 [a]. The compound also returned an Eff. % with Phytophthora infestans of 90%.

Turning to `Cn1c(/C(=N\OCc2cccc(NC(=O)CC3CC4CCC3C4)n2)c2ccccc2)noc1=O` (stereo not drawn) [Example 78], in series [1], the LogP was 4.39 [a]. In the series on Phytophthora infestans, this compound yielded an Eff. % of 100%. For `Cn1c(/C(=N\OCc2cccc(NC(=O)OCC(C)(C)c3ccccc3)n2)c2ccccc2)noc1=O` [Example 79], in that order: 4.71 [a] and 88%. In the case of `Cn1c(C(=NOCc2cccc(NC(=O)OCCOC3CCCCC3)n2)c2ccccc2)noc1=O` [compound 496], the LogP in series [1] is 4.31 [a]. Still for that read-out and setting: in the case of `Cn1c(C(=NOCc2cccc(NC(=O)OCCCc3cccnc3)n2)c2ccccc2)noc1=O` [compound 497] it was 2.11 [a]; in that of `Cc1cc(C)cc(COC(=O)Nc2cccc(CON=C(c3ccccc3)c3noc(=O)n3C)n2)c1` [compound 498], 4.68 [a]; in that of `Cn1c(C(=NOCc2cccc(NC(=O)OCC(F)(F)F)n2)c2ccccc2)noc1=O` [compound 500], 3.57 [a]. Same read-out and setting: in the case of `Cn1c(C(=NOCc2cccc(NC(=O)OCc3cccc(F)c3)n2)c2ccccc2)noc1=O` [compound 501] it was 4.01 [a]; in that of `CC(OC(=O)Nc1cccc(CON=C(c2ccccc2)c2noc(=O)n2C)n1)C1CCCC1` (stereo not drawn) [compound 502], 4.82 [a].

`CCC#CCOC(=O)Nc1cccc(CON=C(c2ccccc2)c2noc(=O)n2C)n1` [compound 503]: the LogP in series [1] is 3.78 [a]. Still for that read-out and setting: the value for `C=C(C)COC(=O)Nc1cccc(CON=C(c2ccccc2)c2noc(=O)n2C)n1` [compound 504] was 3.73 [a]; that for `CC=CCCCOC(=O)Nc1cccc(CON=C(c2ccccc2)c2noc(=O)n2C)n1` [compound 505] was 4.39 [a]. Still for that read-out and setting: in the case of `CC(C)CCCCOC(=O)Nc1cccc(CON=C(c2ccccc2)c2noc(=O)n2C)n1` [compound 506] it was 5.17 [a]; in that of `CCCC=CCOC(=O)Nc1cccc(CON=C(c2ccccc2)c2noc(=O)n2C)n1` [compound 507], 4.56 [a]; in that of `CC=CCCCOC(=O)Nc1cccc(CON=C(c2ccccc2)c2noc(=O)n2C)n1` [compound 509], 4.44 [a]. On the same count and under the same terms, in the case of `CCCC#CCCOC(=O)Nc1cccc(CON=C(c2ccccc2)c2noc(=O)n2C)n1` [compound 511] it was 4.31 [a]; in that of `CC(=O)OCCCCOC(=O)Nc1cccc(CO/N=C(/c2ccccc2)c2noc(=O)n2C)n1` [compound 514], 3.35 [a]. For `C=CC(=O)OCCOC(=O)Nc1cccc(CO/N=C(/c2ccccc2)c2noc(=O)n2C)n1` [compound 515], the LogP in series [1] was 3.21 [a]. The same measure, in the same setting: in the case of `CSCCCOC(=O)Nc1cccc(CO/N=C(/c2ccccc2)c2noc(=O)n2C)n1` [compound 516] it was 3.68 [a]; in that of `Cn1c(/C(=N\OCc2cccc(NC(=O)OCCCl)n2)c2ccccc2)noc1=O` [compound 518], 3.29 [a]; in that of `CCC1(COC(=O)Nc2cccc(CO/N=C(/c3ccccc3)c3noc(=O)n3C)n2)COC1` [compound 520], 3.27 [a]. Regarding `Cc1ccccc1OC(=O)Nc1cccc(CO/N=C(/c2ccccc2)c2noc(=O)n2C)n1` [compound 521], in series [1], the LogP was 3.96 [a]. The same measure, in the same setting: in the case of `CC/C=C/CCOC(=O)Nc1cccc(CO/N=C(/c2ccccc2)c2noc(=O)n2C)n1` [compound 522] it was 4.46 [a]; in that of `Cn1c(/C(=N\OCc2cccc(NC(=O)OCCCC3CCCCC3)n2)c2ccccc2)noc1=O` [compound 523], 5.71 [a]; in that of `Cn1c(/C(=N\OCc2cccc(NC(=O)OCC3CCOC3)n2)c2ccccc2)noc1=O` (stereo not drawn) [compound 524], 2.98 [a]. Consider `Cn1c(/C(=N\OCc2cccc(NC(=O)OCC3CC=CCC3)n2)c2ccccc2)noc1=O` (stereo not drawn) [compound 526], for which the LogP in series [1] is 4.51 [a].

`Cn1c(/C(=N\OCc2cccc(NC(=O)OCc3cccs3)n2)c2ccccc2)noc1=O` [compound 527]: the LogP in series [1] is 3.83 [a]. Same read-out and setting: the value for `Cn1c(/C(=N\OCc2cccc(NC(=O)OCc3ccc(F)cc3)n2)c2ccccc2)noc1=O` [compound 528] was 3.99 [a]; that for `Cn1c(/C(=N\OCc2cccc(NC(=O)OCC3COCO3)n2)c2ccccc2)noc1=O` (stereo not drawn) [compound 529] was 2.73 [a]; that for `CCCOCCOC(=O)Nc1cccc(CO/N=C(/c2ccccc2)c2noc(=O)n2C)n1` [compound 531] was 3.57 [a]. With `COc1ccc(OC(=O)Nc2cccc(CO/N=C(/c3ccccc3)c3noc(=O)n3C)n2)cc1` [compound 532], the LogP in series [1] was 3.69 [a].

As to `Cn1c(/C(=N\OCc2cccc(NC(=O)OCCC3CCCC3)n2)c2ccccc2)noc1=O` [compound 533], in series [1], the LogP was 4.9 [a]. The same measure, in the same setting: in the case of `CCC/C=C\COC(=O)Nc1cccc(CO/N=C(/c2ccccc2)c2noc(=O)n2C)n1` [compound 535] it was 4.53 [a]; in that of `Cn1c(/C(=N\OCc2cccc(NC(=O)OCC(Cl)(Cl)Cl)n2)c2ccccc2)noc1=O` [compound 536], 4.15 [a]; in that of `Cn1c(/C(=N\OCc2cccc(NC(=O)OCCC3CCOCC3)n2)c2ccccc2)noc1=O` [compound 537], 3.44 [a].

For `CC/C=C\CCOC(=O)Nc1cccc(CO/N=C(/c2ccccc2)c2noc(=O)n2C)n1` [compound 540], the LogP in series [1] is 4.44 [a]. Consider `Cn1c(/C(=N\OCc2cccc(NC(=O)OCC3CCCCC3)n2)c2ccccc2)noc1=O` [compound 541], for which the LogP in series [1] is 4.88 [a]. Consider `Cn1c(/C(=N\OCc2cccc(NC(=O)OCC[Si](C)(C)C)n2)c2ccccc2)noc1=O` [compound 542], for which, in series [1], the LogP is 4.88 [a]. `Cn1c(/C(=N\OCc2cccc(NC(=O)OCCCCl)n2)c2ccccc2)noc1=O` [compound 544]: the LogP in series [1] was 3.6 [a]. As to `CC(C)OCCOC(=O)Nc1cccc(CO/N=C(/c2ccccc2)c2noc(=O)n2C)n1` [compound 545], the LogP in series [1] is 3.44 [a]. On to `Cc1ccc(COC(=O)Nc2cccc(CO/N=C(/c3ccccc3)c3noc(=O)n3C)n2)cc1` [compound 546], for which the LogP in series [1] is 4.31 [a]. For the compound `COC(=O)Nc1cccc(CO/N=C(/c2ccccc2)c2noc(=O)n2C)n1` [compound 547], the LogP in series [1] is 2.84 [a]. Same read-out and setting: in the case of `CC#CCCOC(=O)Nc1cccc(CO/N=C(/c2ccccc2)c2noc(=O)n2C)n1` [compound 548] it was 3.58 [a]; in that of `Cn1c(/C(=N\OCc2cccc(NC(=O)OCCCC3CC3)n2)c2ccccc2)noc1=O` [compound 549], 4.37 [a]. `Cn1c(/C(=N\OCc2cccc(NC(=O)OCCCCCl)n2)c2ccccc2)noc1=O` [compound 550]: the LogP in series [1] was 3.83 [a]. The same measure, in the same setting: the value for `Cn1c(/C(=N\OCc2cccc(NC(=O)OCCF)n2)c2ccccc2)noc1=O` [compound 551] was 2.96 [a]; that for `CC(C)c1cccc(OC(=O)Nc2cccc(CO/N=C(/c3ccccc3)c3noc(=O)n3C)n2)c1` [compound 553] was 4.64 [a]; that for `CCOC(=O)COC(=O)Nc1cccc(CO/N=C(/c2ccccc2)c2noc(=O)n2C)n1` [compound 554] was 3.21 [a].

Source of the values: US9090600B2, “Fungicidal 4-substituted-3-{phenyl[(heterocyclylmethoxy)imino]methyl}-1,2,4-oxadizol-5(4H)-one derivatives” (BAYER INTELLECTUAL PROPERTY GMBH, priority 2011, dated 2015).
